The values that follow come from patent US20070078111A1, “LPA2 receptor agonist inhibitors of CFTR” (priority 2005, published 2007).

Assay [1] deals with CFTR Cl- channel. As to the kind of experiment: Short-circuit current (Isc) in polarized Calu-3 monolayers. In kind it is cell-based, human. To be noted: peptide delivered with Chariot; 25 μM LPA (20:4) 30 min; adenosine 0-20 μM; FIG. 4F. As for the experimental part:
Calu-3 and HT29-CL19A polarized cell monolayers were grown to confluency on Costar Transwell permeable supports (filter area is 0.33 cm^2). Filters were mounted in an Ussing chamber, and short-circuit currents (Isc) mediated through CFTR Cl^− channel were carried out as described previously (31). Epithelia were bathed in Ringer's solution (mM) (serosal/basolateral: 140 NaCl^−, 5 KCl, 0.36 K2HPO4, 0.44 KH2PO4, 1.3 CaCl2, 0.5 MgCk2, 4.2 NaHCO3, 10 Hepes, 10 glucose, pH 7.2, [Cl^−]=149), and low Cl-Ringer's solution (mM) (luminal/apical: 133.3 Na-gluconate, 5 K-gluconate, 2.5 NaCl, 0.36 K2HPO4, 0.44 KH2PO4, 5.7 CaCl2, 0.5 MgCl2, 4.2 NaHCO3, 10 Hepes, 10 mannitol, pH 7.2, [Cl^−]=14.8) at 37° C., gassed with 95% O2 and 5%) […] CO2. LPA (20:4) was added into both the luminal (apical) side and serosal (basolateral) side of the cell monolayers for 30 min before adenosine (ADO) was added into the luminal/apical side. […]

Assay [2] deals with T1, NHERF2 (Homo sapiens, UniProt Q15599).
T1 construct: GST
T1 sequence (Q15599 whole entry): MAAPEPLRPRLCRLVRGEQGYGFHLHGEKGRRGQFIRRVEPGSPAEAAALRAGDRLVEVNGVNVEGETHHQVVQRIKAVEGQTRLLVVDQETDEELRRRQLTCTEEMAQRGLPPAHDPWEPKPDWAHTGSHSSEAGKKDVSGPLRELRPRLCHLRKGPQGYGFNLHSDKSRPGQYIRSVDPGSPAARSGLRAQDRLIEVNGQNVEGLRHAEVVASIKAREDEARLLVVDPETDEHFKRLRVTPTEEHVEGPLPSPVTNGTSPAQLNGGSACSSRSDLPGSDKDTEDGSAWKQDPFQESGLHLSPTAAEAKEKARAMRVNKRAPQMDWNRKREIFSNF
As to the kind of experiment: NHERF2 binding to LPA2 in the presence of LPA2-specific peptide. The settings on record: FIG. 4H. The protocol:
This assay (34) was performed using maltose binding protein (MBP)-CFTR-C tail fusion protein (1 μM) immobilized on amylose beads (20 μl) and incubated with GST-NHERF2. This step, which is called pairwise binding, was done in 200 μl of lysis buffer (PBS-0.2% Triton-X 100+protease inhibitors) and mixed at 22° C. for 2 h. The complex was washed once with the same buffer and allowed to bind Flag-tagged LPA2 from lysates of BHK cells expressing the receptor. The binding was done at 4° C. for 3 h with constant mixing. The complex was washed with lysis buffer, eluted with sample buffer, and analyzed by immunoblotting using anti-Flag monoclonal antibody.

Turning to “LPA2-specific peptide: peptide containing the PDZ motif of LPA2 (last 11 amino acids; a.a. 341 to 351, ENGHPLMDSTL)”, the “reversal of LPA-elicited inhibition on CFTR-dependent Cl- currents (Isc)” value in assay [1] is listed as “significantly reversed”. Besides, the “competition with LPA2 for binding to NHERF2” value in assay [2] was “could compete with LPA2 for binding to NHERF2 in a dose-dependent manner”.
